{"source": "patent US9433601B2", "about": "“Chewing gum compositions comprising cannabinoids” (Stichting Sanammad, priority 2008, dated 2016)", "assay": "Degradation of THC during preparation of the chewing gum (extraction and HPLC)", "type": "physicochemical", "settings": "gum base heated till 90° C.; main breakdown product dihydrocannabinol", "protocol": "Samples were prepared by putting one gum in a 10.0 ml glass laboratory tube. 5.00 ml ethanol was added and the tube was shaken 3 times with a 5 minute interval. Then 5.00 ml mobile phase (acetonitrile: H2O+0.1% formic acid) was added. The tube was shaken and the gum was mashed with a Pasteur pipette. Then the solution was shaken again and the sample was filtered through a 0.2 micrometer filter. This is the impurity solution. An assay solution was prepared by diluting the impurity solution 100 times with mobile phase. The calculated amount of THC is based upon comparison with a reference solution with an exactly known amount of THC. Purities are calculated as peak area/sum of area's*100%. Impurities present in the placebo are not considered and known impurities are corrected with known response factors."}
{"smiles": "CCCCCc1cc(O)c2c(c1)OC(C)(C)[C@@H]1CCC(C)=C[C@@H]21", "note": "[THC, (−)-(6aR,10aR)-6,6,9-trimethyl-3-pentyl-6a,7,8,10a-tetrahydro-6H-benzo[c]chromen-1-ol]", "values": [{"measurement": "degradation of THC during the preparation of the chewing gum", "result": "only a slight degradation"}]}
